Experimental data as given in the METLIN SMRT retention time set (Domingo-Almenara et al. 2019).

Assay: gradient 5% acetonitrile 3 min, to 50% in 2 min, to 85% in 15 min, held 3 min, 100 µL/min
Conditions: column: Zorbax Extend-C18 2.1 x 50 mm; eluents: water / acetonitrile, 0.1% formic acid
Summary of the method: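 Pure standards were analyzed in mixtures of ~100 molecules using HPLC coupled to a quadrupole time-of-flight mass spectrometer, in both positive and negative ionization mode. Separation used a Zorbax Extend-C18 column (2.1 × 50 mm, 1.8 μm) at 100 μL/min, with water and acetonitrile each containing 0.1% formic acid. Dead and dwell volumes were 40 μL and 900 μL, and data were collected over 3 months. Retention time was read from computationally picked adduct peaks, each inspected manually.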

| Structure (SMILES) | RP-LC retention time [s] |
| --- | --- |
| NS(=O)(=O)c1ccc(Cl)c(-c2nnc(-c3ccccc3)o2)c1 | 788 |
| COc1ccc(-c2nsc(C(=O)NCc3cccs3)c2N)cc1 | 866 |
| Cn1cc(C2=CCN(S(=O)(=O)c3cccc4nsnc34)CC2)c2cccnc21 | 893 |
| O=C([C@@H]1C[C@H](F)CN1S(=O)(=O)c1ccc(C(F)(F)F)cc1)N1CCCCC1 | 885 |
| COc1cc([C@@H]2c3cc4c(cc3[C@H](O)[C@@H](CO)[C@@H]2C(=O)NC2CCCC2)OCO4)cc(OC)c1OC | 689 |
| Cn1nc(C(=O)N2CCCCC2)c2c1CCN(C(=O)CCC(=O)NC1CCCC1)C2 | 666 |
| COc1cccc(-c2noc(Cn3nc4ccc(-c5ccc(C)c(C)c5)nn4c3=O)n2)c1OC | 969 |
| O=C(Nc1cnc(-c2ccccc2)nc1)c1ccc(Cl)cc1 | 1050 |
| CCOC(=O)c1ccc(Nc2c(-c3cccc(O)c3)nc3cnccn23)cc1 | 717 |
| CCc1nn2c(nnc3c(=O)n(CCc4c[nH]c5ccccc45)ccc32)c1-c1ccccc1 | 1010 |
| CCC(=O)N1CCC2(CC1)CC(CC(=O)N(C)C)CCO2 (stereo not given) | 598 |
| CCc1ccc(-c2noc(CSc3nc4cc5c(cc4c(=O)n3CC3CCCO3)OCO5)n2)cc1 (stereo not given) | 1280 |
| O=C(C1CCCN(c2nccnc2Oc2ccccc2)C1)N1CCN(c2ccccc2Cl)CC1 (stereo not given) | 1240 |
| COc1ccc2[nH]cc(CCNC(=O)c3ccccc3NC(=O)C3=C(C)OCCS3)c2c1 | 938 |
| Fc1ccc(-c2csc(Cc3nc(-c4ccc(Cl)cc4)no3)n2)cc1 | 1310 |
| COC(=O)c1ccc2c(=O)n(-c3ccc(Cl)cc3)c(N3CCCN(C)CC3)nc2c1 | 670 |
| CCn1cc(S(=O)(=O)Nc2ccc(F)cc2F)c2cccnc21 | 814 |
| Cc1ccc(-c2noc(C(=O)N3CCCC3)n2)cc1S(=O)(=O)N1CCN(c2ccccn2)CC1 | 700 |
| Fc1ccccc1-c1noc(N2CCN(c3ccccn3)CC2)n1 | 649 |
| Cc1cnn(CC(=O)N2CCC3(CC2)CC(C)(O)CCO3)c1 (stereo not given) | 603 |
| COc1cc(N2C=C(C#N)S(=O)(=O)c3c(F)cccc32)cc(OC)c1OC | 857 |
| O=C(c1nc(Cn2nc(-c3ccc(F)cc3)ccc2=O)no1)N1CCC2(CC1)OCCO2 | 783 |
| Cc1cc(C)n2c(Nc3ccc4c(c3)OCCO4)c(-c3ccc(Cl)cc3)nc2n1 | 746 |
| Cc1csc(-c2cc(S(=O)(=O)NCc3ccc(Br)cc3)c(C)s2)n1 | 1050 |
| CCOC(=O)c1c(C)oc2nc(C)nc(Nc3ccc4c(c3)OCCO4)c12 | 1200 |
| Cc1nc(-c2cccnc2)nc2c1CCC(=O)N2Cc1ccccn1 | 566 |
| CCCn1cc(CCNS(=O)(=O)c2ccc(F)cc2Cl)c2cccnc21 | 877 |
| CCCN1CCN(c2cc(C(=O)O)c3cc(NS(=O)(=O)c4cc(C)c(C)cc4C)ccc3n2)CC1 | 653 |
| CCOc1cccc(-c2noc(Cn3cnc4c(nnn4-c4ccccc4OC)c3=O)n2)c1 | 979 |
| O=C(COc1ccc(Cl)cc1Cl)NCc1ccsc1 | 920 |

Next, values leading:

| RP-LC retention time [s] | Structure (SMILES) |
| --- | --- |
| 791 | CCOc1cc(=O)n2c(c1C(=O)Nc1cc(C)cc(C)c1)CCCC2 |
| 681 | COc1ccc(NC(=O)c2sc3[nH]c(=O)c(C(=O)O)cc3c2N)c(OC)c1 |
| 552 | O=C(Nc1cccnc1)c1ccc(S(=O)(=O)NC2CC2)cc1 |
| 629 | CCC(CC)NC(=O)C1Cn2cccc2C(=O)N1 (stereo not given) |
| 711 | Cc1cc(F)ccc1NC(=O)C1CCCN(c2cnc3nccnc3c2)C1 (stereo not given) |
| 680 | CNC(=O)[C@@H]1C[C@H](Oc2ccccc2)CN1C(=O)C1CCC1 |
| 579 | O=C(NCc1ccccn1)C1CCCN(c2ncnc3c2oc2ccccc23)C1 (stereo not given) |
| 896 | COc1ccc(N2C(=O)CCC(C(=O)N3CC(C)CC(C)C3)C2c2ccc(F)cc2)cc1 (stereo not given) |
| 634 | Cc1nn2c(CNC(=O)c3ccc(F)c(F)c3)c(C)nc2s1 |
| 580 | COCCNC(=O)C1CCN(c2cncnc2N2CCCC2)CC1 |
| 911 | Cc1cc(C)cc(NC(=O)N2CCC(n3cnc4c(C)cccc4c3=O)CC2)c1 |
| 792 | O=C(Nc1ccccc1)N1CC(c2nc(CCOCC3CC3)no2)C1 |
| 1020 | O=C(Nc1ccc(Cl)cc1F)c1cccn1Cc1noc(C2CC2)n1 |
| 764 | Cc1nnc(N2CCCC(C(=O)NCc3ccc(OC(C)C)cc3)C2)c2nn(-c3ccccc3)c(C)c12 (stereo not given) |
| 1040 | COc1ccc(NC(=O)Cn2cccc2-c2nc(-c3ccc4c(c3)OCO4)no2)cc1OC |
| 755 | CCC(C(=O)Nc1cc(-c2nc3ccccc3[nH]2)ccc1C)c1ccccc1 (stereo not given) |
| 1060 | Cc1ccc(CNC(=O)C2CCCN(c3nc4ccsc4c(=O)n3Cc3ccc(C)cc3)C2)cc1 (stereo not given) |
| 616 | Cc1ccccc1CC(=O)N1CCC(c2nc(C(=O)N3CCOCC3)c(C)o2)CC1 |

| RP-LC retention time [s] | Structure (SMILES) |
| --- | --- |
| 706 | COc1ccc(C2C(C(=O)N3CCCCC3)c3cc(OC)c(OC)cc3C(=O)N2C)cc1OC (stereo not given) |
| 923 | CCOCCCNC(=O)c1cn(C)nc1S(=O)(=O)N1CCN(c2ccccc2OCC)CC1 |
| 815 | O=C(NCCc1ccccc1)C1CCN(C(=O)c2ncn3c2COC(c2ccc(Cl)cc2)C3)CC1 (stereo not given) |
| 740 | Cc1nnc(-c2ccc3ccn(CC(=O)NC4CCCC4)c3c2)o1 |
| 842 | CCc1nn(CC(=O)NCCc2c[nH]c3ccccc23)c(=O)c2cc3sccc3n12 |
| 1080 | Cc1cc2nn(CC(=O)N3CCc4ccccc43)c(=O)n2c(Nc2ccccc2C)n1 |
| 965 | CC1CCN(S(=O)(=O)c2cccn(CC(=O)OC(C)(C)C)c2=O)CC1 |
| 753 | CCOc1ccccc1NC(=O)NCC(c1cccnc1)c1cn(C)c2ccccc12 (stereo not given) |
| 762 | CCOc1ccccc1NC(=O)Cn1c(=O)c(CCC(=O)NCC(C)C)nc2ccccc21 |
| 792 | CC(C)n1c(N2CCN(C(=O)c3ccc(F)cc3)CC2)cc(=O)n(C(C)C)c1=O |
| 1030 | CCc1cccc(NC(=O)c2cn(C)nc2S(=O)(=O)N2CCSCC2)c1 |
| 638 | CCn1c(=O)c(=O)n(CC(=O)NCCc2ccco2)c2cccnc21 |
| 1150 | CCCN(CCC)C(=O)c1cc2c(s1)N(C)CCCC2 |
| 863 | COCCCNC(=O)C1CCCN(c2ncc(-c3cccc(F)c3)cn2)C1 (stereo not given) |
| 847 | Cc1ccsc1C(=O)N1CCC2(CC1)NC(=O)N(Cc1ccccc1Cl)C2=O |
| 817 | CCc1nnc(-c2cn(CC(=O)Nc3ccc4c(c3)OCCO4)c3ccccc23)o1 |
| 647 | Cc1ccc(Cl)cc1NC(=O)N1CCC(N2CCN(Cc3ccccn3)C(=O)C2=O)CC1 |
